From paper PMC10221074, “Functional Profiling of the A-Family of Venom Peptides from the Wolf Spider Lycosa shansia” (Toxins, 2023)

What was measured:
[1] = test system: Pseudomonas aeruginosa DSM 50071; experiment: Antibacterial growth assay (OD600); conditions: OD600, medium = 100, MH II broth, 37 °C, peptide 200 µM mixed 50 µL + 50 µL with bacteria, Figure 7: 48 h; for Bacterial growth relative to medium, P. aeruginosa (50071), replicate 1: replicate column 1; for Bacterial growth relative to medium, P. aeruginosa (50071), replicate 2: replicate column 2; for Bacterial growth relative to medium, P. aeruginosa (50071), replicate 3: replicate column 3
Method: (§1) Cryo-conserved cultures of selected bacterial strains (Table 4) were transferred to Tryptic Soy Agar (TSA) plates (Carl Roth) with a sterile inoculation loop, sealed with Parafilm (BEMIS, Neenah, WI, USA), and incubated for 1–2 days at 37 °C depending on growth. Single colonies were picked and transferred into 2–3 mL of the Mueller–Hinton II (MH II) broth (BD, Heidelberg, Germany). The bacteria were cultivated overnight, subcultured on fresh medium and grown for 3–4 h before testing at 37 °C, with shaking at 180 rpm. We measured the optical density at 600 nm (OD600) of 1 mL of the bacterial suspensions in polystyrene cuvettes (SARSTED, Nümbrecht, Germany) using an Ultrospec 10 spectrophotometer (Biochrome, Cambridge, UK). We then diluted them with the MH II medium to the preferred OD600 (Table 2). The peptides were dissolved in DMSO to generate 10 mmol/L stocks and diluted with the MH II medium to 200 µM before the assay. We used 10 µg/mL (~40 µg/mL for S. epidermidis) gentamicin and colistin (Sigma-Aldrich, Taufkirchen, Germany), DMSO and the medium only as controls. The bacteria were transferred to 96-multiwell plates with a final volume of 100 µL per well (50 µL bacterial suspension, and 50 µL test peptide). The OD600 was measured at 0, 24 and 48 h using a BioTek Eon microplate reader followed by analysis with Gen5 v2.09.

[2] = test system: panel of seven bacterial strains; experiment: Antibacterial growth assay (OD600), statements on the whole panel; format: cell-based; conditions: growth after 48 h
[3] = test system: B/Malaysia/2506/2004 (B-Mal); format: cell-based, influenza virus
A/Hamburg/05/2009 (H1N1) = format: cell-based, influenza virus
[4] = test system: Staphylococcus epidermidis DSM 28319; experiment: Antibacterial growth assay (OD600); conditions: for Bacterial growth relative to medium, S. epidermidis, replicate 1 / Bacterial growth relative to medium, S. epidermidis, replicate 2 / Bacterial growth relative to medium, S. epidermidis, replicate 3: OD600, medium = 100, MH II broth, 37 °C, peptide 200 µM mixed 50 µL + 50 µL with bacteria, Figure 7: 48 h; for Bacterial growth relative to medium, S. epidermidis, replicate 1: replicate column 1; for Bacterial growth relative to medium, S. epidermidis, replicate 2: replicate column 2; for Bacterial growth relative to medium, S. epidermidis, replicate 3: replicate column 3; for Antibacterial activity (in words): S. epidermidis DSM 28319, growth after 48 h
[5] = test system: Staphylococcus aureus DSM 2569; experiment: Antibacterial growth assay (OD600); conditions: for Bacterial growth relative to medium, S. aureus, replicate 1 / Bacterial growth relative to medium, S. aureus, replicate 2 / Bacterial growth relative to medium, S. aureus, replicate 3: OD600, medium = 100, MH II broth, 37 °C, peptide 200 µM mixed 50 µL + 50 µL with bacteria, Figure 7: 48 h; for Bacterial growth relative to medium, S. aureus, replicate 1: replicate column 1; for Bacterial growth relative to medium, S. aureus, replicate 2: replicate column 2; for Bacterial growth relative to medium, S. aureus, replicate 3: replicate column 3; for Antibacterial activity (in words): S. aureus DSM 2569, growth after 48 h
Method: as §1

A/Hessen/1/2003 (H3N2) = format: cell-based, influenza virus
[6] = test system: Pseudomonas aeruginosa DSM 1117; experiment: Antibacterial growth assay (OD600); conditions: for Bacterial growth relative to medium, P. aeruginosa (1117), replicate 1 / Bacterial growth relative to medium, P. aeruginosa (1117), replicate 2 / Bacterial growth relative to medium, P. aeruginosa (1117), replicate 3: OD600, medium = 100, MH II broth, 37 °C, peptide 200 µM mixed 50 µL + 50 µL with bacteria, Figure 7: 48 h; for Bacterial growth relative to medium, P. aeruginosa (1117), replicate 1: replicate column 1; for Bacterial growth relative to medium, P. aeruginosa (1117), replicate 2: replicate column 2; for Bacterial growth relative to medium, P. aeruginosa (1117), replicate 3: replicate column 3
[7] = test system: Escherichia coli BL21(DE3); experiment: Antibacterial growth assay (OD600); conditions: for Bacterial growth relative to medium, E. coli, replicate 1 / Bacterial growth relative to medium, E. coli, replicate 2 / Bacterial growth relative to medium, E. coli, replicate 3: OD600, medium = 100, MH II broth, 37 °C, peptide 200 µM mixed 50 µL + 50 µL with bacteria, Figure 7: 48 h; for Bacterial growth relative to medium, E. coli, replicate 1: replicate column 1; for Bacterial growth relative to medium, E. coli, replicate 2: replicate column 2; for Bacterial growth relative to medium, E. coli, replicate 3: replicate column 3; for Antibacterial activity (in words): E. coli BL21(DE3), growth after 48 h
Method: as §1

[8] = test system: Listeria monocytogenes DSM 20600; experiment: Antibacterial growth assay (OD600); conditions: for Bacterial growth relative to medium, L. monocytogenes, replicate 1 / Bacterial growth relative to medium, L. monocytogenes, replicate 2 / Bacterial growth relative to medium, L. monocytogenes, replicate 3: OD600, medium = 100, MH II broth, 37 °C, peptide 200 µM mixed 50 µL + 50 µL with bacteria, Figure 7: 48 h; for Bacterial growth relative to medium, L. monocytogenes, replicate 1: replicate column 1; for Bacterial growth relative to medium, L. monocytogenes, replicate 2: replicate column 2; for Bacterial growth relative to medium, L. monocytogenes, replicate 3: replicate column 3; for Antibacterial activity (in words): L. monocytogenes DSM 20600, growth after 48 h
Method: as §1

[9] = test system: Micrococcus luteus DSM 20030; experiment: Antibacterial growth assay (OD600); conditions: for Antibacterial activity (in words): M. luteus DSM 20030, growth after 48 h; for Bacterial growth relative to medium, M. luteus, replicate 1 / Bacterial growth relative to medium, M. luteus, replicate 2 / Bacterial growth relative to medium, M. luteus, replicate 3: OD600, medium = 100, MH II broth, 37 °C, peptide 200 µM mixed 50 µL + 50 µL with bacteria, Figure 7: 48 h; for Bacterial growth relative to medium, M. luteus, replicate 1: replicate column 1; for Bacterial growth relative to medium, M. luteus, replicate 2: replicate column 2; for Bacterial growth relative to medium, M. luteus, replicate 3: replicate column 3
[10] = […], replicate 4 (additional internal control)
[11] = […], replicate 5 (additional internal control)

Row | Sequence | Bacterial growth relative to medium, P. aeruginosa (50071), replicate 1 [1] | Bacterial growth relative to medium, P. aeruginosa (50071), replicate 2 [1] | Bacterial growth relative to medium, P. aeruginosa (50071), replicate 3 [1] | Antibacterial activity over the panel (in words) [2] | Viability of infected cells relative to aprotinin, Replicate 1 [3] | Viability of infected cells relative to aprotinin, Replicate 2 [3] | Viability of infected cells relative to aprotinin, Replicate 3 [3] | Viability of infected cells relative to aprotinin, Replicate 1 (A/Hamburg/05/2009 (H1N1)) | Viability of infected cells relative to aprotinin, Replicate 2 (A/Hamburg/05/2009 (H1N1)) | Viability of infected cells relative to aprotinin, Replicate 3 (A/Hamburg/05/2009 (H1N1)) | Bacterial growth relative to medium, S. epidermidis, replicate 1 [4] | Bacterial growth relative to medium, S. epidermidis, replicate 2 [4] | Bacterial growth relative to medium, S. epidermidis, replicate 3 [4] | Bacterial growth relative to medium, S. aureus, replicate 1 [5] | Bacterial growth relative to medium, S. aureus, replicate 2 [5] | Bacterial growth relative to medium, S. aureus, replicate 3 [5] | Viability of infected cells relative to aprotinin, Replicate 1 (A/Hessen/1/2003 (H3N2)) | Viability of infected cells relative to aprotinin, Replicate 2 (A/Hessen/1/2003 (H3N2)) | Viability of infected cells relative to aprotinin, Replicate 3 (A/Hessen/1/2003 (H3N2)) | Bacterial growth relative to medium, P. aeruginosa (1117), replicate 1 [6] | other results
1 | SLLGLLDVVKNKVGQI [LS-AMP-A5] | 93.2773 | 109.79 | 85.8852 | inhibited the growth of most of the bacteria except two | 0.1132 | 0.06127 | 0.06301 | 0.0613 | 0.03494 | 0.03984 | 62.884 | 53.6633 | 71.8202 | 55.1989 | 62.917 | 88.627 | 0.17 | 0.06482 | 0.08289 | 63.186 | Viability of infected cells relative to aprotinin, Replicate 4 (A/Hessen/1/2003 (H3N2); [10]): 0.1822; Viability of infected cells relative to aprotinin, Replicate 5 (A/Hessen/1/2003 (H3N2); [11]): 0.1791; Viability of infected cells relative to aprotinin, Replicate 6 (A/Hessen/1/2003 (H3N2); […], replicate 6 (additional internal control)): 0.1761; Bacterial growth relative to medium, P. aeruginosa (1117), replicate 2 [6]: 51.5489; Bacterial growth relative to medium, P. aeruginosa (1117), replicate 3 [6]: 62.0721; Bacterial growth relative to medium, E. coli, replicate 1 [7]: 99.4801; Bacterial growth relative to medium, E. coli, replicate 2 [7]: 69.6408; Bacterial growth relative to medium, E. coli, replicate 3 [7]: 26.4544; Bacterial growth relative to medium, L. monocytogenes, replicate 1 [8]: 122.608; Bacterial growth relative to medium, L. monocytogenes, replicate 2 [8]: 80.283; Bacterial growth relative to medium, L. monocytogenes, replicate 3 [8]: 61.98; Antibacterial activity (in words) [9]: no activity; Bacterial growth relative to medium, M. luteus, replicate 1 [9]: 73.1884; Bacterial growth relative to medium, M. luteus, replicate 2 [9]: 97.1848; Bacterial growth relative to medium, M. luteus, replicate 3 [9]: 36.1549
2 | SLLGLLDVVKNKVGQIG [LS-AMP-A4] | 97.6103 | 110.944 | 86.4168 | inhibited the growth of most of the bacteria except two | 0.05108 | 0.07356 | 0.0764 | 0.03111 | 0.02825 | 0.01475 | 50.7409 | 49.8658 | 70.1306 | 64.8588 | 69.2609 | 80.5088 | 0.1134 | 0.06953 | 0.04762 | 67.901 | Antibacterial activity (in words) [4]: able to decrease the growth; Antibacterial activity (in words) [5]: able to decrease the growth; Bacterial growth relative to medium, P. aeruginosa (1117), replicate 2 [6]: 83.7452; Bacterial growth relative to medium, P. aeruginosa (1117), replicate 3 [6]: 58.9242; Antibacterial activity (in words) [7]: able to decrease the growth; Bacterial growth relative to medium, E. coli, replicate 1 [7]: 63.5471; Bacterial growth relative to medium, E. coli, replicate 2 [7]: 64.6002; Bacterial growth relative to medium, E. coli, replicate 3 [7]: 38.7121; Antibacterial activity (in words) [8]: able to decrease the growth; Bacterial growth relative to medium, L. monocytogenes, replicate 1 [8]: 47.529; Bacterial growth relative to medium, L. monocytogenes, replicate 2 [8]: 64.3679; Bacterial growth relative to medium, L. monocytogenes, replicate 3 [8]: 81.7792; Antibacterial activity (in words) [9]: able to decrease the growth; Bacterial growth relative to medium, M. luteus, replicate 1 [9]: 48.8727; Bacterial growth relative to medium, M. luteus, replicate 2 [9]: 93.5811; Bacterial growth relative to medium, M. luteus, replicate 3 [9]: 47.3458
3 | SLLGLLDVVKNKVGQIGLL [LS-AMP-A3] | 100.315 | 112.866 | 88.8092 | limited activity | 0.05676 | 0.05168 | 0.08362 | 0.0465 | 0.03476 | 0.04494 | 125.081 | 166.552 | 95.4096 | 77.3106 | 83.4859 | 97.1568 | 0.1081 | 0.01008 | 0.02318 | 63.3724 | Bacterial growth relative to medium, P. aeruginosa (1117), replicate 2 [6]: 74.5214; Bacterial growth relative to medium, P. aeruginosa (1117), replicate 3 [6]: 66.198; Antibacterial activity (in words) ([6]; P. aeruginosa DSM 1117, growth after 48 h): less effective; Bacterial growth relative to medium, E. coli, replicate 1 [7]: 114.847; Bacterial growth relative to medium, E. coli, replicate 2 [7]: 118.887; Bacterial growth relative to medium, E. coli, replicate 3 [7]: 89.3889; Antibacterial activity (in words) [8]: less effective; Bacterial growth relative to medium, L. monocytogenes, replicate 1 [8]: 59.9369; Bacterial growth relative to medium, L. monocytogenes, replicate 2 [8]: 117.418; Bacterial growth relative to medium, L. monocytogenes, replicate 3 [8]: 68.2929; Bacterial growth relative to medium, M. luteus, replicate 1 [9]: 106.28; Bacterial growth relative to medium, M. luteus, replicate 2 [9]: 132.545; Bacterial growth relative to medium, M. luteus, replicate 3 [9]: 67.7188
4 | SLLGLLDVVKNTVGQ [LS-AMP-A11] | 97.4528 | 114.818 | 88.0117 | inhibited the growth of most of the bacteria except two | 0.04707 | 0.04802 | 0.0552 | 0.05004 | 0.04235 | 0.04417 | 49.2953 | 44.2655 | 33.4715 | 50.8023 | 58.8947 | 79.7231 | 0.1919 | 0.09823 | 0.08306 | 82.0725 | Viability of infected cells relative to aprotinin, Replicate 4 (A/Hamburg/05/2009 (H1N1); [10]): 0.03789; Viability of infected cells relative to aprotinin, Replicate 5 (A/Hamburg/05/2009 (H1N1); [11]): 0.01667; Antibacterial activity (in words) [4]: able to decrease the growth; Antibacterial activity (in words) [5]: able to decrease the growth; Bacterial growth relative to medium, P. aeruginosa (1117), replicate 2 [6]: 95.9276; Bacterial growth relative to medium, P. aeruginosa (1117), replicate 3 [6]: 84.5049; Antibacterial activity (in words) [7]: able to decrease the growth; Bacterial growth relative to medium, E. coli, replicate 1 [7]: 64.587; Bacterial growth relative to medium, E. coli, replicate 2 [7]: 63.905; Bacterial growth relative to medium, E. coli, replicate 3 [7]: 36.8825; Antibacterial activity (in words) [8]: able to decrease the growth; Bacterial growth relative to medium, L. monocytogenes, replicate 1 [8]: 57.2028; Bacterial growth relative to medium, L. monocytogenes, replicate 2 [8]: 67.6393; Bacterial growth relative to medium, L. monocytogenes, replicate 3 [8]: 84.2183; Antibacterial activity (in words) [9]: able to decrease the growth; Bacterial growth relative to medium, M. luteus, replicate 1 [9]: 56.0386; Bacterial growth relative to medium, M. luteus, replicate 2 [9]: 92.3422; Bacterial growth relative to medium, M. luteus, replicate 3 [9]: 31.1812
